# Experimental data: patent US20120020876A1, “HEDGEHOG PATHWAY INHIBITORS” (priority 2009, published 2012)
# “Also recorded” adds a separate entry of the source.
# Tests used:
# Format in all cases: in vivo, mouse
# [1] = Compound A concentration in tissues by LC/MS; conditions: KPC mice; oral administration 40 mg/kg; 6 h after final dose
# Experimental: KPC mice harboring pancreatic tumors were treated with 40 mg/kg of Compound A by oral gavage, either singly, once daily for four days or at as part of a survival study. […] Six hours following the final dose, tissue samples were harvested, snap frozen in liquid nitrogen and stored at −80° C. Mice with abdominal ascites were excluded from analysis. Samples were analyzed by LC/MS, as described below.
# Calibration standard stock solutions were prepared by dissolving Compound A at a concentration of 2.5 mg/mL in DMSO. Internal standard stock solution was prepared by dissolving deuterated Compound A (Compound A-d^3) in DMSO for a final concentration of 2.5 mg/mL. Stock solutions were stored in aliquots at −80° C. until further use. […]
# Tumor samples were homogenized in 4 volumes of ACN:PBS buffer. […] Compound A concentrations for all tissues were preferentially determined using the 1:1 dilution unless any of the replicates for a given tissue required the higher dilution of 1/100 for accurate quantitation.
# Compound A concentrations in the samples were determined from the calibration curves generated in homogenization buffer. […]
# The data were acquired and processed using the software Analyst 1.4.1 (Applied Biosystems, Foster City, Calif.). For the standard curve samples, peak area ratios of Compound A to internal standard […] were calculated and plotted against the theoretical concentrations. […]
# KPC tumor vasculature = test: Mean vascular density and vascular-tumor distance (CD31 immunohistochemistry) in KPC tumors
# Experimental: Tissues were fixed in 10% formalin solution for 24 hours and transferred to 70% ethanol. Tissues were paraffin embedded, sectioned and rehydrated. For CD31 IHC, sections were unmasked in 10 mM EDTA, pH 8.0 in a pressure cooker. For all other antibodies, sections were unmasked in 10 mM citric acid in a pressure cooker. Endogenous peroxidases were quenched in 3% H2O2/PBS for 20 minutes. Remaining steps were carried out with Vectastain ABC kits appropriate to the species of primary antibody (Vector Labs, Burlingame, Calif.) with the following modification: blocking serum was supplemented with Protein Blocking Agent (Immunotech/BeckmanCoulter, Fullerton, Calif.) diluted 1:50. Antigens were developed with DAB Peroxidase Substrate (Vector Labs). […]
# Tissue sections were probed with anti-CD31 antibodies and counterstained with hematoxylin. Mean vascular density (MVD) was determined as the number of CD31 positive blood vessels per 40× field, over three random fields per tumor. The distance separating intratumoral blood vessels and neoplastic cells was determined for twenty randomly chosen blood vessels per tumor. Each intratumoral blood vessels was photographed at 1000× magnification, and the distance to the four nearest tumor cells was measured and the results averaged.
# KPC tumors [2] = test: Proliferation of KPC tumors (phospho-histone H3 immunohistochemistry); conditions: 4 days or 8-12 days of treatment
# Experimental: Tissues were fixed in 10% formalin solution for 24 hours and transferred to 70% ethanol. Tissues were paraffin embedded, sectioned and rehydrated. For CD31 IHC, sections were unmasked in 10 mM EDTA, pH 8.0 in a pressure cooker. For all other antibodies, sections were unmasked in 10 mM citric acid in a pressure cooker. Endogenous peroxidases were quenched in 3% H2O2/PBS for 20 minutes. Remaining steps were carried out with Vectastain ABC kits appropriate to the species of primary antibody (Vector Labs, Burlingame, Calif.) with the following modification: blocking serum was supplemented with Protein Blocking Agent (Immunotech/BeckmanCoulter, Fullerton, Calif.) diluted 1:50. Antigens were developed with DAB Peroxidase Substrate (Vector Labs). The following antibody dilutions were used: Phospho-Histone H3, 1:100 (#9701, Cell Signaling Technology); Cleaved Caspase 3, 1:100 (#9661, Cell Signaling Technology); CD31, 1:75 (SC-1506). Slides were counterstained with hematoxylin.
# KPC tumor blood vessels = test: Vessel patency: lectin perfusion with CD31 staining in KPC tumors; conditions: KPC mice treated 10 days; vs untreated or gemcitabine tumors
# Experimental: To assess the functional vasculature, biotin-conjugated Lycopersicon esculentum lectin (B1175-1 mg, Vector Laboratories) was resuspended in 425 μL PBS and mixed with 75 μL of 1 mg/mL Streptavidin-AlexaFluor 633 (S21375, Molecular Probes) (in sterile PBS). Prior to use, the lectin-avidin mixture was centrifuged 14,000 k on a microfuge for 10 minutes to remove any particulate. Fifteen minutes prior to euthanasia, 100 μl (0.4 mg total) of the conjugated lectin was administered as a slow intravenous infusion over 5 minutes, and the hemodynamics monitored closely to ensure that it was tolerated. For doxorubicin experiments, five minutes prior to euthanasia mice were also infused with a 20 mg/kg doxorubicin solution (D-1515.10 mg, in sterile saline, Sigma) over one minute.
# While under terminal anesthesia, mice were perfused with 4% paraformaldehyde in PBS, pH 7.4. Perfused tissues were harvested, fixed overnight in 4% paraformaldehyde in PBS, pH 7.4 and transferred to 70% ethanol. Tissues were embedded in paraffin, sectioned, rehydrated, and counterstained with DAPI. The lectin labeling experiments were reproduced independently in a second laboratory (SRH, KI).
# Mice were infused with 30 ml of 4% PFA pH 7.4 using a Harvard Apparatus PhD 2000 syringe pump at a rate of […]. […] Doxorubicin fluorescence was excited with a 488 nm laser, and emission was detected in a range from 520-620 nm. […]
# KPC tumors [3] = test: Histology (H&E) of treated KPC tumors; conditions: KPC tumors after 8-12 days of treatment
compound,measurement,setting,value
CC1=C2C[C@H]3[C@@H](CC[C@@H]4C[C@H](NS(C)(=O)=O)CC[C@@]43C)[C@@H]2CC[C@@]2(C1)O[C@@H]1C[C@H](C)CN[C@H]1[C@H]2C.Cl [Compound A],accumulation of drug in PDA tissues,[1],measurable accumulation of drug in PDA tissues
same,mean vascular density (MVD),KPC tumor vasculature; KPC tumors after 8-12 days of treatment,higher MVD; also recorded: significantly elevated; also recorded: increased MVD
same,position of intratumoral blood vessels relative to tumor cells,"KPC tumor vasculature; KPC tumors, vs control and gemcitabine-treated specimens",positioned in close proximity to tumor cells
same,proliferation of KPC tumors,KPC tumors [2],little appreciable effect; also recorded: unchanged
same,vessel patency (percent of CD31 positive vessels perfused with lectin),KPC tumor blood vessels,increased vessel patency
same,tumor stroma / histological pattern,KPC tumors [3],dramatically altered histological patterns; also recorded: loss of cellular and acellular stroma
